Experimental data taken from patent US20260200990A1, “MODIFIED LONG PEPTIDES SUITABLE FOR USE IN IMMUNISATION” (ISABELLA PHARMA B.V., priority 2022, published 2026).
Ends that are not written are not given here.

Tested on: T cells cultured from PBMC from healthy donors
Test: T cell induction by PRAME-based SLPs, IFNy ELISpot (test 1 and test 2)
Design: species or system human; key to ELISPOT IFNy / ELISPOT IFNy, summary of the results in the table: − (negative); + (positive); When at least one donor had a positive response, this is denoted as POS
Settings: for ELISPOT IFNy, summary of the results in the table: Table 5, all donors; for IFNy response in in vitro human T cell cultures: summary over the donors tested
Description: The capacity of human-PRAME-based SLPs to activate T cells was studied. The biological activity of the synthesized and purified SLPs was tested using PBMC from healthy donors. Monocytes were isolated using anti-CD14 beads by magnet activated cell sorting (MACS) following the protocol of the supplier (Miltenyi Biotec). In short, PBMCs were isolated by centrifugation over a Ficoll gradient and cryopreserved. To generate dendritic cells (DCs), approximately […] thawed PBMC were used for the isolation of CD14 positive cells. The cells were cultured for three days at 37° C. in 2 ml/well of IMDM 4% human serum (HS) containing 800 U/ml GM-CSF and 500 U/ml IL-4 (Peprotech). After 3 days 1 mL/well of IMDM 4% HS with GM-CSF (2400 U/mL) and IL-4 (1500 U/mL) was added to the monocytes-derived DCs and these adhered cells were cultured for an additional 3 days. On day 6, long peptides distributed over 2 pools were added to monocyte-derived DCs of naive donors at a 13 μM concentration and incubated overnight at 37° C. The next day (day 7) peptide-loaded DCs were harvested, irradiated (1000 rad), washed and mixed in a 1:10 ratio with autologous PBMC in IMDM 8% human serum in the presence of IL-7 (10 ng/ml) and IL-12p70 (100 μg/mL).
On day 10 new DCs were generated and loaded, after 6 days, with SLPs on day 16 as described above. The next day, these peptide-loaded DCs were harvested, irradiated (1000 rad) and washed. Also the cultured T cells were harvested. Both were counted and mixed in a 1:10 ratio (DC:T) in IMDM 8% human serum in the presence of IL-7 (10 ng/ml) and IL-12p70 (100 μg/mL) for the first restimulation. On the same day, new DCs were generated as described above that were loaded with SLPs on day 23 as described above. The next day, peptide-loaded DCs were harvested, irradiated (1000 rad) and washed. Also the cultured and restimulated T cells were harvested. Both were counted and mixed in a 1:10 ratio (DC:T) in IMDM 8% human serum in the presence of IL-7 (10 ng/ml) and IL-12p70 (100 μg/mL) for the second restimulation.
On this day 24, also test 1 was started in which DCs loaded with individual SLPs were cultured with harvested T cells from restimulation 1. For test 1, DCs and harvested T cells were cultured in a 1:10 ratio for 2 days after which cells were transferred to a coated ELISpot plate (see description below). On day 24, new DCs were generated as described above that were loaded with SLPs on day 30 as described above. The next day, peptide-loaded DCs were harvested, irradiated (1000 rad) and washed. Also the cultured twice restimulated T cells were harvested. Both were counted and mixed in a 1:10 ratio (DC:T) in IMDM 8% human serum in the presence of IL-2 (30 IU/mL) and IL-12p70 (100 μg/mL) for the third restimulation.
On day 31, also test 2 was started in which DCs loaded with individual SLPs were cultured with harvested T cells from restimulation 2. For test 2, DCs and harvested T cells were cultured in a 1:10 ratio for 2 days after which cells were transferred to a coated ELISpot plate (see description below).
The T cell cultures were restimulated three times in 1-week cycles using peptide loaded autologous moDCs. After the 2nd and 3rd restimulation, reactivity towards single SLPs was tested (test 1 and test 2, respectively). Reactivity was determined by measuring IFNy production using ELISpot.
For ELISpot analysis, multiscreen plates were coated with an IFNy coating antibody overnight at 4° C. The next day, the plate was washed 4× with PBS and blocking was done using IMDM 8% HS at 37° C. for at least one hour. Each sample was tested in triplicate. As a positive control, phytoheamagglutinin (PHA, 1 μg/mL) was added to cells that were not stimulated with SLP after thawing. The plate was cultured overnight at 37° C. Thereafter, cells were discarded and the plate was washed using PBS/0.05% Tween-20. The IFNy detection antibody was diluted and added to each well and incubated for 2 hours at room temperature. […]

[1] = donor BC298, Test 1, 2 peptide pools
[2] = donor BC298, Test 2, 2 peptide pools
[3] = donor BC305, Test 1, 2 peptide pools
[4] = donor BC305, Test 2, 2 peptide pools
[5] = donor BC306, Test 1, 2 peptide pools
[6] = donor BC306, Test 2, 2 peptide pools
[7] = donor BC312, Test 1, 2 peptide pools
[8] = donor BC312, Test 2, 2 peptide pools
[9] = donor BC321, Test 1, 2 peptide pools
[10] = donor BC321, Test 2, 2 peptide pools
[11] = donor BC228, Test 1, pool of 3 peptides
[12] = donor BC228, Test 2, pool of 3 peptides
[13] = donor BC303, Test 1, pool of 3 peptides
[14] = donor BC303, Test 2, pool of 3 peptides
[15] = donor BC314, Test 1, pool of 3 peptides
[16] = donor BC314, Test 2, pool of 3 peptides
[17] = donor BC320, Test 1, pool of 3 peptides
[18] = donor BC320, Test 2, pool of 3 peptides
[19] = donor BC322, Test 1, pool of 3 peptides
[20] = donor BC322, Test 2, pool of 3 peptides
[21] = donor BC323, Test 1, pool of 3 peptides
[22] = donor BC323, Test 2, pool of 3 peptides
[23] = donor BC290, Test 1, 2 peptide pools
[24] = donor BC290, Test 2, 2 peptide pools
[25] = donor BC315, Test 1, 2 peptide pools
[26] = donor BC315, Test 2, 2 peptide pools

Sequence | ELISPOT IFNy, summary of the results in the table | ELISPOT IFNy [1] | ELISPOT IFNy [2] | ELISPOT IFNy [3] | ELISPOT IFNy [4] | ELISPOT IFNy [5] | ELISPOT IFNy [6] | ELISPOT IFNy [7] | ELISPOT IFNy [8] | ELISPOT IFNy [9] | ELISPOT IFNy [10] | ELISPOT IFNy [11] | ELISPOT IFNy [12] | ELISPOT IFNy [13] | ELISPOT IFNy [14] | ELISPOT IFNy [15] | ELISPOT IFNy [23] | ELISPOT IFNy [24] | ELISPOT IFNy [25] | ELISPOT IFNy [26] | other results
ALYVDSLFFLRGRLDQLLRHVMNPLETLSITNCRL (ALYVDSLFFLRGRLDQLLRHVMNPLETLSITNC(cysteinyl)RL; listed as Homo sapiens) [SEQ ID NO: 40, PRAME-based SLP, cysteinylated form tested] | POS | − | − | − | − | − | − | − | − | + | + |  |  |  |  |  |  |  |  |  | 
KEGACDELFSYLIEKVKRKKNVLRL (KEGAC(cysteinyl)DELFSYLIEKVKRKKNVLRL; listed as Homo sapiens) [SEQ ID NO: 39, PRAME-based SLP, cysteinylated form tested] |  | − | − | − | − | − | − | − | − | − | − | − | − | − | − | + |  |  |  |  | ELISPOT IFNy [16]: +; ELISPOT IFNy [17]: −; ELISPOT IFNy [18]: −; ELISPOT IFNy [19]: −; ELISPOT IFNy [20]: −; ELISPOT IFNy [21]: −; ELISPOT IFNy [22]: −; IFNy response in in vitro human T cell cultures: positive IFNy response
LETFKAVLDGLDVLLAQEVRPRRWKLQVLDLRK (listed as Homo sapiens) [SEQ ID NO: 45, PRAME-based SLP of WO2008118017, reference compound] |  | − | − | − | − | − | − | − | − | − | − | − | − | − | − | − |  |  |  |  | ELISPOT IFNy [16]: −; ELISPOT IFNy [17]: −; ELISPOT IFNy [18]: −; ELISPOT IFNy [19]: −; ELISPOT IFNy [20]: −; ELISPOT IFNy [21]: −; ELISPOT IFNy [22]: −; IFNy response in in vitro human T cell cultures: did not show convincing responses
LKAMVQAWPFTCLPLGVLMKGQHLHLETFKAVL (LKAMVQAWPFTC(cysteinyl)LPLGVLMKGQHLHLETFKAVL; listed as Homo sapiens) [SEQ ID NO: 38, PRAME-based SLP, cysteinylated form tested] | POS | + | + | − | − | − | − | − | − | + | − |  |  |  |  |  | − | − | − | − | 
LLPRELFPPLFMAAFDGRHSQTLKAMVQAWPF (listed as Homo sapiens) [SEQ ID NO: 43, PRAME-based SLP] |  | − | − | − | − | − | − | − | − | + | − |  |  |  |  |  |  |  |  |  | 
LPSLSHCSQLTTLSFYGNSISISALQSLLQHLIGL (LPSLSHC(cysteinyl)SQLTTLSFYGNSISISALQSLLQHLIGL; listed as Homo sapiens) [SEQ ID NO: 44, PRAME-based SLP, cysteinylated form tested] |  | − | + | − | − | − | − | − | − | + | − |  |  |  |  |  |  |  |  |  | 
PTLAKFSPYLGQMINLRRLLLSHIHASSYISPE (listed as Homo sapiens) [SEQ ID NO: 37, PRAME-based SLP] |  | − | − | + | − | − | − | − | − | − | − |  |  |  |  |  | + | + | − | − | 
VLSLSGVMLTDVSPEPLQALLERASATLQDLVFDE (listed as Homo sapiens) [SEQ ID NO: 50, PRAME-based SLP of WO2008118017, reference compound] |  | − | − | − | − | − | − | − | − | − | − | − | − | − | − | − | − | − | − | − | ELISPOT IFNy [16]: −; ELISPOT IFNy [17]: −; ELISPOT IFNy [18]: −; ELISPOT IFNy [19]: −; ELISPOT IFNy [20]: −; ELISPOT IFNy [21]: −; ELISPOT IFNy [22]: −; IFNy response in in vitro human T cell cultures: did not show convincing responses
VLYPVPLESYEDIHGTLHLERLAYLHARLREL (listed as Homo sapiens) [SEQ ID NO: 41, PRAME-based SLP] | POS | − | − | − | − | − | − | − | − | − | − |  |  |  |  |  | − | − | + | + | 
